One compound from BindingDB's records for doi:10.1021/acs.jmedchem.0c00182 (Inception Therapeutics, 2020) can be followed below.

The assay is described as follows: Inhibition of eIF4A1 in human HAP1 cells assessed as reduction in cell proliferation incubated for 72 hrs by CellTiter-Glo reagent based assay. For orientation: Cellular ATP, detected with luciferase, serves as a proxy for viable cell number.

By IC50 is commonly meant the midpoint of a concentration-inhibition curve. Consider `COc1cc2c(c(OC)n1)[C@]1(O)[C@H](O)[C@H](CN(C)C)[C@@H](c3ccccc3)[C@]1(c1ccc(C#N)cc1)O2` [Zotatifin], for which the IC50 amounted to 6.3 nM.
